Results on five compounds are retold here after PubChem BioAssay AID504896 (The Scripps Research Institute Molecular Screening Center, 2011).

Molecules are shown by their SMILES. pEC50: −log10 of the molar value.

In the assay the target is cAMP-dependent protein kinase type I-alpha regulatory subunit (Bos taurus) + cAMP-dependent protein kinase catalytic subunit beta (Mus musculus) (UniProt P00514+P68181). The assay can be described thus: PKA-R1A complex activators, counter-screen titration – biochemical, Cy5-IP20 fluorescence polarization, 1536-well, triplicate, counter-screen for PKA-R2B activator project, dose response (AID 504896). The settings on record: PKA-R1A holoenzyme, activation. (A counterscreen serves to expose hits that act by an unwanted route or on another target.)
A word on the pEC50: it is −log10 of the EC50, conventionally taken in molar units. For the compound `Nc1nc2c(nc(Br)n2[C@@H]2O[C@@H]3COP(=O)(O)O[C@H]3[C@H]2O)c(=O)[nH]1`, the pEC50 was 5.11.

For `Nc1ncnc2c1nc(Sc1ccc(Cl)cc1)n2[C@@H]1O[C@@H]2COP(=O)(O)O[C@H]2[C@H]1O`, the pEC50 is 7.49.

`CCCC(=O)Nc1ncnc2c1ncn2[C@@H]1O[C@@H]2OP(=O)(O)OC[C@H]2[C@H]1OC(=O)CCC`: the pEC50 is 5.17.

Take `Nc1ncnc2c1nc(Br)n2[C@@H]1O[C@@H]2COP(=O)(O)O[C@H]2[C@H]1O`: the pEC50 is 7.46.

On to `CCOP1(=O)OCC2OC(n3cnc4c(N)ncnc43)C(O)C2O1` (stereo not given), for which the pEC50 is 5.57.
